Laboratory results taken from patent publication US20240327380A1, “BTK INHIBITORS” (BIOGEN MA INC., priority 2020, published 2024).
pIC50: −log10 of the molar value.

biological target: T1, active BTK enzyme (Upstate 14-552) (Homo sapiens, UniProt Q06187); assay: In Vitro BTK Kinase Assay: Btk-PolyGAT-LS Assay; format: biochemical; conditions: ATP 10 μM, polyGAT 100 nM, BTK 0.25 nM, 30 minutes, TRF readout
T1 construct: purchased Upstate 14-552
Description: In Vitro BTK Kinase Assay: Btk-PolyGAT-LS Assay The purpose of the BTK in vitro assay is to determine compound potency against BTK through the measurement of IC50. Compound inhibition is measured after monitoring the amount of phosphorylation of a fluorescein-labeled polyGAT peptide (Invitrogen PV3611) in the presence of active BTK enzyme (Upstate 14-552), ATP, and inhibitor. The BTK kinase reaction was done in a black 96 well plate (costar 3694). For a typical assay, a 24 μL aliquot of a ATP/peptide master mix (final concentration; ATP 10 μM, polyGAT 100 nM) in kinase buffer (10 mM Tris-HCl pH 7.5, 10 mM MgCl2, 200 μM […], 5 mM DTT, 0.01% Triton X-100, and 0.2 mg/ml casein) is added to each well. Next, […] of a 4-fold, 40× compound titration in 100% DMSO solvent is added, followed by adding 15 μL of BTK enzyme mix in 1× kinase buffer (with a final concentration of 0.25 nM). The assay is incubated for 30 minutes before being stopped with 28 μL of a 50 mM EDTA solution. Aliquots (5 μL) of the kinase reaction are transferred to a low volume white 384 well plate (Coming 3674), and 5 μL of a 2× detection buffer (Invitrogen PV3574, with 4 nM Tb-PY20 antibody, Invitrogen PV3552) is added. The plate is covered and incubated for 45 minutes at room temperature. Time resolved fluorescence (TRF) on Molecular Devices M5 (332 nm excitation; 488 nm emission; 518 nm fluorescein emission) is measured. IC50 values are calculated using a four parameter fit with 100% enzyme activity determined from the DMSO control and 0% activity from the EDTA control.

T1 sequence (Q06187 whole entry): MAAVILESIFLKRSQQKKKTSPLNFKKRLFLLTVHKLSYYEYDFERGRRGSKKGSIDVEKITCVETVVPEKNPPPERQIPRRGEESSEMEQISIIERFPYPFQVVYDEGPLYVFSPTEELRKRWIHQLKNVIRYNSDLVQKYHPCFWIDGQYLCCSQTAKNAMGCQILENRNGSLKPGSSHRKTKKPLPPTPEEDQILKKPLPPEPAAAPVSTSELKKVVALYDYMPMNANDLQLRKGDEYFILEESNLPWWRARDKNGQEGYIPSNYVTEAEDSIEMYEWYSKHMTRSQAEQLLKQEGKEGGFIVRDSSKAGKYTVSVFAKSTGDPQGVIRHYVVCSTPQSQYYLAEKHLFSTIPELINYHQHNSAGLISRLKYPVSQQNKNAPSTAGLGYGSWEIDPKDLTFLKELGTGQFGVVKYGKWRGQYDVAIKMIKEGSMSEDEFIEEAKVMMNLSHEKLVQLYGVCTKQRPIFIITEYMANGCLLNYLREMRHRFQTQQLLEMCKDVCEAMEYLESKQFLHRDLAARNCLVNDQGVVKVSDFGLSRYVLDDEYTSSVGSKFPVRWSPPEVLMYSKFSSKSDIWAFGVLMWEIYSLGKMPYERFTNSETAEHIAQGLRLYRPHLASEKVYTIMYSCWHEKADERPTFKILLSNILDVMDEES

Row | pIC50 | Structure (SMILES)
1 | 8.00 to 9.00 | C=C(F)C(=O)N1CCN(c2cncnc2-c2ccc(CNC(=O)c3noc(C(C)(C)C)n3)c(C)c2)CC1 [Example 81, 5-(tert-butyl)-N-(4-(5-(4-(2-fluoroacryloyl)piperazin-1-yl)pyrimidin-4-yl)-2-methylbenzyl)-1,2,4-oxadiazole-3-carboxamide]
2 | ≥ 9.00 | C=CC(=O)N1CCN(c2cncnc2-c2ccc(CNC(=O)c3nc(C(C)(C)C)no3)c(C)c2)CC1 [Example 83, N-(4-(5-(4-acryloylpiperazin-1-yl)pyrimidin-4-yl)-2-methylbenzyl)-3-(tert-butyl)-1,2,4-oxadiazole-5-carboxamide]
3 | ≥ 9.00 | CN(C)C/C=C/C(=O)N1CCN(c2cnccc2-c2ccc(CNC(=O)c3nc(C(C)(C)C)no3)c(C(F)F)c2)CC1 [Example 89, (E)-3-(tert-butyl)-N-(2-(difluoromethyl)-4-(3-(4-(4-(dimethylamino)but-2-enoyl)piperazin-1-yl)pyridin-4-yl)benzyl)-1,2,4-oxadiazole-5-carboxamide]
4 | ≥ 9.00 | CN(C)C/C=C/C(=O)N1CCN(c2cnccc2-c2ccc(CNC(=O)c3nc(C(C)(C)C)no3)c(C(F)(F)F)c2)CC1 [Example 92, (E)-3-(tert-butyl)-N-(4-(3-(4-(4-(dimethylamino)but-2-enoyl)piperazin-1-yl)pyridin-4-yl)-2-(trifluoromethyl)benzyl)-1,2,4-oxadiazole-5-carboxamide]

Continued, compound first:

Row | Structure (SMILES) | pIC50
5 | C=CC(=O)N1CCN(c2cncnc2-c2ccc(CNC(=O)c3nnn(C(C)(C)C)n3)c(C)c2)CC1 [Example 79, N-(4-(5-(4-acryloylpiperazin-1-yl)pyrimidin-4-yl)-2-methylbenzyl)-2-(tert-butyl)-2H-tetrazole-5-carboxamide] | ≥ 9.00
6 | Cc1cc(-c2ccncc2N2CCN(C(=O)/C=C/CN(C)C)C(C)C2)ccc1CNC(=O)c1noc(C(C)(C)C)n1 (stereo not drawn) [Example 74, (E)-5-(tert-butyl)-N-(4-(3-(4-(4-(dimethylamino)but-2-enoyl)-3-methylpiperazin-1-yl)pyridin-4-yl)-2-methylbenzyl)-1,2,4-oxadiazole-3-carboxamide] | ≥ 9.00
7 | Cc1cc(-c2ccncc2N2CCN(C(=O)/C=C/CN3CCOCC3)CC2)ccc1CNC(=O)c1noc(C(C)(C)C)n1 [Example 67, (E)-5-(tert-butyl)-N-(2-methyl-4-(3-(4-(4-morpholinobut-2-enoyl)piperazin-1-yl)pyridin-4-yl)benzyl)-1,2,4-oxadiazole-3-carboxamide] | 8.00 to 9.00
8 | C=CC(=O)N1CCC[C@@H](c2cnccc2-c2ccc(CNC(=O)c3cc(C(C)(C)C)on3)c(C)c2)C1 (single isomer, unassigned) [Example 34] | < 8.00
9 | C=CC(=O)N1CCC2(CCN(c3cnccc3-c3ccc(CNC(=O)c4cn(C(C)(C)C)nn4)c(C)c3)C2)C1 (stereo not drawn) [Example 4, N-(4-(3-(7-acryloyl-2,7-diazaspiro[4.4]nonan-2-yl)pyridin-4-yl)-2-methylbenzyl)-1-(tert-butyl)-1H-1,2,3-triazole-4-carboxamide] | < 8.00
10 | C=CC(=O)N(C)C1CCN(c2cnccc2-c2ccc(CNC(=O)c3cn(C(C)(C)C)nn3)c(C)c2)C1=O (stereo not drawn) [Example 11, 1-(tert-butyl)-N-(2-methyl-4-(3-(3-(N-methylacrylamido)-2-oxopyrrolidin-1-yl)pyridin-4-yl)benzyl)-1H-1,2,3-triazole-4-carboxamide] | < 8.00
11 | C=CC(=O)N1CCC2(CCN(c3cnccc3-c3ccc(CNC(=O)c4cn(C)nc4C(F)F)c(C)c3)C2)C1 (stereo not drawn) [Example 5, N-(4-(3-(7-acryloyl-2,7-diazaspiro[4.4]nonan-2-yl)pyridin-4-yl)-2-methylbenzyl)-3-(difluoromethyl)-1-methyl-1H-pyrazole-4-carboxamide] | < 8.00
12 | C=CC(=O)N1CC2(C1)CN(c1cnccc1-c1ccc(CNC(=O)c3noc(C(C)(C)C)n3)c(C)c1)C2 [Example 6, N-(4-(3-(6-acryloyl-2,6-diazaspiro[3.3]heptan-2-yl)pyridin-4-yl)-2-methylbenzyl)-5-(tert-butyl)-1,2,4-oxadiazole-3-carboxamide] | < 8.00
